Test results reported in patent US6110901A (priority 1992, dated 2000).
pIC50: −log10 of the molar value. “And” between values parts separate entries of the source, which are not always exact repeats. Equal values may be shown once. Read-outs that look alike come from different tables or passages of the source.

Tests used:
HeLa cells = test: Cytotoxicity in uninfected HeLa cell cultures, MTT cell viability assay; assay type: cell-based; conditions: MTT at 48 hours
Experimental: (§1) Mammalian cell lines, MDCK CCL34 and HeLa cells CCL2 (both obtained under those accession numbers from ATCC culture) are plated in 96 well microtiter dishes at a density of 3.5×10^4 cells per well and infected with virus at low multiplicity followed by treatment with drug 24 hours after plating of cells; drug concentrations range from 0.025-12.5 mM. MDCK cells are infected with influenza virus (strain A/NWS) and HeLA cells are infected with HRV 14-14VR-284 (obtained from ATCC) (human rhinovirus 14) or CVB3 VR30 (coxsackie virus B3 strain Nancy obtained from ATCC); replicate uninfected cell cultures are treated with drug as toxicity control. At 48 hours after infection the extent of virus growth is determined by ELISA in the case of influenza virus or by the MTT (tetrazolium dye) cell viability assay in the cases of HRV 14 and CVB3. The influenza A (A/NWS)VR-129 (ATCC) virus ELISA assay utilizes a primary monoclonal antibody to the virus hemagglutinin protein and a secondary antibody conjugated to B-galactosidase. Cytotoxicity of drugs in uninfected cell cultures is determined by MTT cell viability assay at 48 hours after drug treatment

MDCK cells = test: cells; assay type: cell-based; conditions: Canis lupus familiaris, 48 h, read-out: IC50 Value Tox (beside Flu A/NWS)
[1] = biological target: influenza virus RNA polymerase (Influenza A virus, UniProt P03431); assay type: biochemical
VSV RNA polymerase = VSV RNA polymerase (Vesicular stomatitis Indiana virus, UniProt P03523); assay type: biochemical, Vesicular stomatitus virus (VSV)
[2] = system: influenza virus (strain A/NWS); test: microbe, parasite or virus in culture; assay type: cell-based; conditions: MDCK, 48 h, read-out: IC50 Value Flu A/NWS
[3] = system: HRV 14 (human rhinovirus 14); test: HRV 14 growth in HeLa cells by MTT cell viability assay; assay type: cell-based; conditions: Rhinovirus B, MTT at 48 hours after infection
Experimental: as §1

[4] = system: CVB3 (coxsackie virus B3 strain Nancy); test: CVB3 growth in HeLa cells by MTT cell viability assay; assay type: cell-based; conditions: Enterovirus B, MTT at 48 hours after infection
Experimental: as §1

[5] = system: influenza A virus (strain A/NWS); conditions: mouse, in vivo
[6] = read-out: IC50 Value Tox (beside CVB3)
[7] = Homo sapiens, read-out: IC50 Value Tox (beside HRV 14)
[8] = Homo sapiens, read-out: IC50 Value Tox (beside CVB3)

Row | SMILES | pIC50 (MDCK cells) | pIC50 (HeLa cells; [7]) | pIC50 [2] | pIC50 [3] | other results
1 | [N-]=[N+]=N[C@H]1C[C@H](n2ccc(N)nc2=O)O[C@@H]1CO [3'-AzdC] | – | – | – | – | pIC50 (HeLa cells; [6]): < 1.90
2 | [N-]=[N+]=N[C@H]1C[C@H](n2ccc(=O)[nH]c2=O)O[C@@H]1CO [3'-AzdU] | – | – | – | – | pIC50 (HeLa cells; [6]): < 1.90
3 | CO[C@H]1[C@@H](O)[C@H](n2cnc3c(N)ncnc32)O[C@@H]1CO [3'-OMeA] | < 1.30 | < 1.30 | – | – | –
4 | CO[C@H]1[C@@H](O)[C@H](n2ccc(N)nc2=O)O[C@@H]1CO [3'-OMeC] | < 1.30 | < 1.30 | – | – | –
5 | CO[C@H]1[C@@H](O)[C@H](n2cnc3c(=O)[nH]c(N)nc32)O[C@@H]1CO [3'-OMeG] | < 1.30 | < 1.30 | – | – | –
6 | CO[C@H]1[C@@H](O)[C@H](n2ccc(=O)[nH]c2=O)O[C@@H]1CO [3'-OMeU] | < 1.30 | < 1.30 | – | – | –
7 | Nc1ccn([C@@H]2O[C@H](COP(=O)(O)OP(=O)(O)OP(=O)(O)O)C[C@H]2O)c(=O)n1 [3'-d CTP, 3'-deoxy-CTP] | – | – | – | – | Activity against the influenza virus RNA polymerase [1]: low to moderately inhibitory activity; % Inhibition (VSV RNA polymerase): 0%; Effect on VSV RNA polymerase (VSV RNA polymerase): does not inhibit
8 | Nc1nc2c(ncn2[C@@H]2O[C@H](COP(=O)(O)OP(=O)(O)OP(=O)(O)O)C[C@H]2O)c(=O)[nH]1 [3'-d GTP, 3'-deoxy-GTP] | – | – | – | – | % Inhibition [1]: 55%; Activity against the influenza virus RNA polymerase [1]: fairly good inhibitor; % Inhibition (VSV RNA polymerase): 13% and 7%; Effect on VSV RNA polymerase (VSV RNA polymerase): only weakly inhibitory
9 | O=c1ccn([C@@H]2O[C@H](COP(=O)(O)OP(=O)(O)OP(=O)(O)O)C[C@H]2O)c(=O)[nH]1 [3'-d UTP, 3'-deoxy UTP] | – | – | – | – | Activity against the influenza virus RNA polymerase [1]: moderately active; Effect on VSV RNA polymerase (VSV RNA polymerase): little or no effect
10 | Nc1ncnc2c1ncn2[C@@H]1O[C@H](CO)C[C@H]1O [3'-dA, 3'-deoxyriboadenine] | 2.85 | 3.89 | 3.10 | 4.32 | –
11 | Nc1ccn([C@@H]2O[C@H](CO)C[C@H]2O)c(=O)n1 [3'-dC, 3'-deoxyribocytosine] | 2.30 | 2.74 | 3.05 | 4.60 | pIC50 (HeLa cells; [8]): 2.74; pIC50 [4]: 4.05; % ILS (increase in life span) [5]: 10% and 20%; % Survival (14 Days) [5]: 0% and 10%; Antiviral activity in murine model of influenza A virus infection [5]: minimal antiviral activity; MST [5]: 11 days and 12 days
12 | Nc1nc2c(ncn2[C@@H]2O[C@H](CO)C[C@H]2O)c(=O)[nH]1 [3'-dG, 3'-deoxyriboguanine] | 2.68 | 2.47 | 3.57 | 3.55 | –
13 | O=c1ccn([C@@H]2O[C@H](CO)C[C@H]2O)c(=O)[nH]1 [3'-dU, 3'-deoxyribouracil] | 1.90 | 2.62 | 4.07 | 4.57 | pIC50 (HeLa cells; [8]): 2.62; pIC50 [4]: 4.05; MST [5]: > 14 days and 10 days; Protection of animals in murine model of influenza A virus infection [5]: significant protection; Toxicity in mice [5]: appears to have toxicity
